Entries after “also recorded” stand apart in the source; their conditions may differ. {C6-FAM} = fluorescein (C6-FAM) label; [invdT] = inverted (3'-3') thymidine; d = 2'-deoxy (DNA); m = 2'-O-methyl; r = 2'-OH (RNA); f = 2'-fluoro
What was measured:
[1] = target: T1, ECD PSMA (Homo sapiens, UniProt Q04609); experiment: Dot blot binding assay (nitrocellulose filtration)
T1 construct: N-terminal linker […]; made in house; host or cells: 293 Freestyle cells, pSecTag2B vector
Description: The binding reactions are then analyzed by nitrocellulose filtration using a Minifold I dot-blot, 96-well vacuum filtration manifold (Schleicher & Schuell, Keene, N.H.) (dot blot binding assay). A three-layer filtration medium is used, consisting (from top to bottom) of Protran nitrocellolose (Schleicher & Schuell), Hybond-P nylon (Amersham Biosciences, Piscataway, N.J.) and GB002 gel blot paper (Schleicher & Schuell). The nitrocellulose layer, which selectively binds protein over nucleic acid, preferentially retains the anti-PSMA aptamer in complex with a protein ligand, while non-complexed anti-PSMA aptamer passes through the nitrocellulose and adhered to the nylon (the gel blot paper is included as a supporting medium for the other filters). Following filtration, the filter layers are separated, dried and exposed on a phosphor screen (Amersham Biosciences) and quantified using a Storm 860 Phosphorimager® blot imaging system (Amersham Biosciences) and KD values are calculated by fitting the equation y=(max/(1+K/protein))+yint.
Dot Blot Binding Analysis. […]
In order to identify the core structural elements required for ARC955 binding to PSMA, the 3′-boundaries of the clone was determined through alkaline hydrolysis. […] The KD and maximum % bound for the 3 minimized constructs with the overall highest PSMA affinity, as determined by a dot blot binding assay, are listed in Table 4. […]

[2] = system: LNCaP cells (PSMA+); experiment: LNCaP FACS assay with fluorescein-labeled aptamers; format: cell-based; conditions: FACS analysis
Description: The parent A9 aptamer sequence (SEQ ID NO 168) is predicted by the MFOLD algorithm implemented in the RNAStructure program v. 4.11 to fold into a partially mismatched hairpin that encompasses almost the entire molecule. A series of truncated constructs were designed, in which self-pairing nucleotides from the 5′- and 3′-ends were simultaneously removed, chemically synthesized using conventional solid-phase phosphoramidite-based synthesis, and tested. In the design of some of the truncated A9 aptamers, see e.g. ARC591, additional bases were added to the 3′ and 5′ ends of the truncate, where the bases added to the 5′ end were capable of forming Watson-Crick base pairs with those added to the 3′ end thereby increasing the length of stem structure. Truncated aptamers were 5′-labeled with fluorescein and tested for binding in to LNCaP cells (PSMA+) in the FACS assay described below. PC-3 cells (PSMA−) were used as a control cell line. The sequences of the truncated A9 aptamers designed are listed below in Table 6 below.
To accomplish 5′-fluorescein labeling, aptamers were synthesized with a 5′-amine and then modified post-solid phase synthesis. The required aptamer was dissolved to a concentration of ˜10-50 mg/mL in 25 mM phosphate buffer, pH 7.4. The small molecule, NHS ester of fluorescein, was dissolved to a concentration of 10 mg/mL in DMSO. 1.5 Molar equivalents were added to the aptamer and the solution vortexed for ˜15 seconds. The reaction was allowed to proceed in the dark at room temperature for 1 hour and then a 5 μL aliquot was withdrawn, diluted with water and analyzed by HPLC. Additional equivalents of the small molecule were added until the reaction was complete by HPLC. Excess small molecules were removed by gel filtration.
To prepare aptamers for the FACS assay, PSMA aptamers were serially diluted (0-1 uM) in FACS buffer (1×DPBS w/Ca^++/Mg^++ (Gibco, Carlsbad, Calif.) supplemented with 10 mg/mL salmon sperm DNA & 0.2% Na Azide), in a V-bottom 96 well plate, at the concentrations to be tested. LNCaP and PC-3 cells (ATCC, Manassas, Va.) were harvested with trypsin, and 200,000 cells/well were counted, washed once with 1×DPBS (with Ca^++ and Mg^++) and resuspended in 200 μl of FACS Buffer. The 200 μl of cells in FACS buffer were added to individual wells of a new 96 well plate, pelleted by centrifugation (1300 rpm for 5 minutes), and resuspended in 100 μl of the appropriate concentration of diluted aptamer. FACS buffer, c-PSMA antibody (3C6) (Northwest Biotherapeutics, Bothell, Wash., Cat #: 60-5002) and an irrelevant fluorescein isothiocyanate (“FITC”) mouse IgG1 isotype control antibody (BD Pharmingen, San Diego, Calif., Cat#: 554679) were used as controls. The wells of aptamer/cell mixture were incubated at room temperature for 20-30 minutes. […]

[3] = system: LNCaP cells; experiment: Cell proliferation assay, chemiluminescent detection of BrdU; format: cell-based; conditions: for effect on cell viability / cell killing (in words): LNCaP cells
Description: Effects on LNCaP cell viability were assessed in a cell proliferation assay based on chemiluminescent detection of BrdU described below (Cell Proliferation ELISA, BrdU (Roche, Indianapolis, Ind.). PC-3 cells were used as a control cell line.
Media from LNCaP (PSMA+) or PC3 (PSMA−) cells growing in 15 cm plates was aspirated off then cells were washed with 10 mL 1×PBS. Cells were trypsinized for 30 sec at 37° C. Following trypsinization, 8 mL 10% FBS media was used to quench trypsin. […] Following spin the media was aspirated off and the cell pellet was re-suspended with 10 mL complete media. The cell density was adjusted to 200,000 cells/mL. 50 μl of cells/well was added to collagen coated black 96-well plates (10,000 cells/well). […] Following overnight incubation 25 μl of media, aptamer or antibody was added to each well with the final volume in the well being 100 μl and incubated at 37° C. in 5% CO2 for designated time length. […] After 2 days 20 μl BrdU labeling reagent (100×) is mixed with 2 mL of complete media. […] After incubation, the media was removed, and the assay was completed following the manufacturer's protocol: 200 μl/well FixDenat solution was added to each well and incubated for 30 min at RT. Following removal of FixDenat solution 100 μl anti-BrdU POD Fab fragment solution (Luminol/4-iodophenol) was added to each well and incubated for 90 min at RT. After incubation anti-BrdU POD solution was removed and plates were washed with 200 μl/well of washing solution three times with 5 min RT incubations. 100 μl of substrate solution was added to each well and cells were incubated for 3 min at RT in the dark. The plates were read using a luminescence program with a 1 sec count on a Packard TopCount Microplate Scintillation and Luminescence Counter.

[4] = target: PSMA NAALADase activity (Homo sapiens, UniProt Q04609); experiment: NAALADase inhibition assay; format: biochemical; conditions: relative to parent aptamer
Sequence of PSMA NAALADase activity (Q04609 with tags, fused parts or gaps limits assumed): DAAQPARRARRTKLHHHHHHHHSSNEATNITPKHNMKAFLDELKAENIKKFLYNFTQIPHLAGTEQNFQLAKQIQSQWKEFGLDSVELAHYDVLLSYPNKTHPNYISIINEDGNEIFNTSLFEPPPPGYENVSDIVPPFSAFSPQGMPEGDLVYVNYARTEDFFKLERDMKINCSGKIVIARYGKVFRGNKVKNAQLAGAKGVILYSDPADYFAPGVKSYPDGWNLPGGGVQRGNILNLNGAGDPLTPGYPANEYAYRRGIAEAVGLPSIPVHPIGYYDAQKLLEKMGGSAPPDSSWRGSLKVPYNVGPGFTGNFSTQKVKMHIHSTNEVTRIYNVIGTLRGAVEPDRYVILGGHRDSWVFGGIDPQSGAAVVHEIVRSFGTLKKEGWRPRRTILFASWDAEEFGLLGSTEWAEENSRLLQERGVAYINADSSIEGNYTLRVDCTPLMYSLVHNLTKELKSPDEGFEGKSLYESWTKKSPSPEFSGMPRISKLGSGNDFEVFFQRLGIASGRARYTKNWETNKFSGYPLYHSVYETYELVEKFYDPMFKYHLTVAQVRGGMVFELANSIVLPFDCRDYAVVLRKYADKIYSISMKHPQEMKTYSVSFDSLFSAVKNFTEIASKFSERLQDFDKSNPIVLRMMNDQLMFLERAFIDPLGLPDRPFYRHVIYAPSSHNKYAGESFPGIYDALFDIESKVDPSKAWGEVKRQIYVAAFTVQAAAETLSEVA
Description: These point mutant constructs were assessed for activity in terms of inhibition of PSMA NAALADase activity. The NAALADase assay was performed in 96 well format. PSMA aptamers were serially diluted in 1× reaction buffer (40 mM Tris-HCl, pH 7.4, 0.1 mM ZnSO4, 0.1 mg/mL BSA) in a standard 96 well plate to be tested at a final concentration range from 30 pM to 1 μM. The enzyme was prepared by diluting 30 μL of 100 nM PSMA into 8 mL of reaction buffer, and kept cool on ice. The substrate was prepared by adding 19 μl of NAAG [Glutamate-3,4-^3H], 50.8 Ci/mmol, 19.7 μM (Perkin-Elmer, Wellesley, Mass., NET1082) into 2.2 mL of reaction buffer.
Following preparation of all reagents, 4 μl of each serially diluted aptamer was added to a separate 96 well plate (the reaction plate). 76 μl of diluted enzyme was added to the corresponding wells containing aptamer. 80 μl of reaction buffer was added to one column of wells to serve as a background control. The diluted substrate and reaction plate were then moved to a room at 37° C. and allowed to equilibrate for 10 minutes. […]
To separate the cleavage products, […] and Glutamate, from the substrate, an AG 1-×8, 200-400 mesh, formate resin (BioRad, Hercules, Calif., # 140-1454) was used. […] The plate was sealed and read using a Packard Topcount Microplate Scintillation Counter. […]

T1 sequence (Q04609 with tags, fused parts or gaps): as the sequence (Q04609 with tags, fused parts or gaps limits assumed) above

Question: How did the “PSMA binding (in words)” value [1] turn out when “AGAGGAGAGAACGUUCUACUAUGGGUGGCUGGGAGGGG (2'-O-methyl at ACU, RNA at G, backbone not given here) [ARC1091, rGmH minimer of ARC955]” was run?
Answer: maintains the full binding capacity

Question: How did the “PSMA binding (in words)” value [1] turn out when “CUACUACACAUGGGUCGGGUGAGUGGCAAAGGAAUAGUAG (2'-O-methyl at ACU, RNA at G, backbone not given here) [ARC725]” was run?
Answer: no intrinsic PSMA binding; also recorded: not to exhibit PSMA binding

Question: How did the “competition with fluorescently labeled anti-PSMA antibody for binding to the surface of LNCaP cells” value [2] turn out when “C6 FAM-GGAGGACCGAAAAAGACCUGACUUCUAUACUAAGUCUACGUUCCUCC-3T (GGAGGACCGAAAAAGACCUGACUUCUAUACUAAGUCUACGUUCCUCCT; 5' FAM label and 3' inverted dT, sugar chemistry not clearly assigned, further chemistry not given here) [ARC710, fluorescently labeled A9 minimer]” was run?
Answer: effectively competes

Question: How did the “effect on cell viability / cell killing (in words)” value [3] turn out when “mCmGmGmACmGAAAAmAmGmAmCfCfUGAfCfUfUfCfUAfUAfCfUAAmGmUmCmUAfCmGfUmUmCmCmG-3T [ARC942]” was run?
Answer: no intrinsic effect on cell viability at any concentration

Question: “c6 fam-mCmGmGmAfCfCmGAAAAmAmGmAmCfCfUGAfCfUfUfCfUAfUAfCfUAAmGmUmCmUAfCmGfUmUmCmCmG-3T (CGGACCGAAAAAGACCUGACUUCUAUACUAAGUCUACGUUCCG; sugars from the 5' end mmmmffmrrrrmmmmffrrfffffrfrffrrmmmmrfmfmmmm, [invdT] at 3' end, 5' {C6-FAM}, backbone not given here) [ARC711, fluorescently labeled A9 minimer]” was tested. Which “competition with fluorescently labeled anti-PSMA antibody for binding to the surface of LNCaP cells” value [2] did it give?
Answer: effectively competes

Question: With “UAAUACGACUCACUAUAGGGAGAGGAGAGAACGUUCUACUAUGGGUGGCUGGGAGGGGAAGAGGGAGUAGGUCGAUCGAUCGAUCAUCGAUG [ARC955]” as the molecule, how does the “effect on cell viability / cell killing (in words)” value [3] read?
Answer: no intrinsic effect on cell viability at any concentration

Question: How did the “NAALADase inhibition activity (in words)” value [4] turn out when “mCmGmGmAfCfCmGdAdAfCmAmAmGmGmCfCfU-s-dGmAfCfUfUfCfUmAfUmAfCfUdAmAmGmCmCmUmAfCmGfUmUmCmCmG-3T (CGGACCGAACAAGGCCUGACUUCUAUACUAAGCCUACGUUCCG; sugars from the 5' end mmmmffmddfmmmmmffdmfffffmfmffdmmmmmmfmfmmmm, [invdT] at 3' end, backbone not given here; internal -s- element between two units) [ARC1725]” was run?
Answer: retained full activity

Question: Which results are given for `O=c1c(-c2ccc(O)cc2)coc2cc(O)cc(O)c12` [Genistein, reference compound]?
Answer: cytotoxicity at 25 μM ([3]; positive control, 25 μM dose): partial inhibition; cytotoxicity at 150 μM ([3]; positive control, 150 μM): complete cell killing

From patent US7767803B2, “Stabilized aptamers to PSMA and their use as prostate cancer therapeutics” (Archemix Corp., priority 2002, dated 2010)
